# Target: T1, human CRHR2-alpha (Homo sapiens, UniProt Q13324)
# T1 sequence (Q13324 1-411): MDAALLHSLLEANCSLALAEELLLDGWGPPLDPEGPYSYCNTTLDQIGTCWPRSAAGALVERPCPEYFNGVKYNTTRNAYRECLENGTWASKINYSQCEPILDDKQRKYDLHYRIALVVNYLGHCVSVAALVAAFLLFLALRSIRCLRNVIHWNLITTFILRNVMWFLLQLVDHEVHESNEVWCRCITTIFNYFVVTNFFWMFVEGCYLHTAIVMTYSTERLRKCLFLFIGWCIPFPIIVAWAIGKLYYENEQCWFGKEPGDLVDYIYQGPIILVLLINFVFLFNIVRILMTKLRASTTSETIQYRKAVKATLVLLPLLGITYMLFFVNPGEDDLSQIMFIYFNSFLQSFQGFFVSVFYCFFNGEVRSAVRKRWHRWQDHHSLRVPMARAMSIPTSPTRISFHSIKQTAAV
# Assay: cAMP functional assay for human CRHR2 (LANCE Ultra cAMP, TR-FRET)
# Format: cell-based
# Settings: CHO-K1 cells expressing human CRHR2-alpha, agonist human urocortin2 at EC80, cAMP; read-out: IC50 against CRHR2
# Method in brief: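 CHO-K1 stable lines; 4,000 cells/well; compound 30 min, 25° C; EC80 agonist (human urocortin2 → CRHR2, CRF → CRHR1) 30 min, 25° C; buffer HBSS/0.1% BSA/0.5 mM IBMX/5 mM Hepes pH 7.4; Eu-cAMP tracer + ULight antibody 60 min; TR-FRET read; IC50 from % inhibition curves.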
row,IC50 [nM],Structure (SMILES)
1,< 300,"Cc1ncc(Cl)cc1C(=O)N[C@H]1CC[C@H](Cn2c(=O)n(-c3ccc4c(N)n[nH]c4c3)c3ccccc32)CC1 [Example 197, N-((1r,4r)-4-((3-(3-amino-1H-indazol-6-yl)-2-oxo-2,3-dihydro-1H-benzo[d]imidazol-1-yl)methyl)cyclohexyl)-5-chloro-2-methylnicotinamide]"
2,< 300,"COc1ccc(-n2c(=O)n(C[C@H]3CC[C@H](NC(=O)c4cc(Cl)cnc4C(F)F)CC3)c3cnccc32)cc1F [Example 724, 5-chloro-2-(difluoromethyl)-N-((1r,4r)-4-((1-(3-fluoro-4-methoxyphenyl)-2-oxo-1H-imidazo[4,5-c]pyridin-3(2H)-yl)methyl)cyclohexyl) nicotinamide]"
3,< 300,"Cc1ncc(Cl)cc1C(=O)N[C@H]1CC[C@H](Cn2c(=O)n(-c3ccc(C(=O)Nc4cc[nH]n4)nc3)c3ccccc32)CC1 [Example 183, 5-(3-(((1r,4r)-4-(5-chloro-2-methylnicotinamido)cyclo-hexyl)methyl)-2-oxo-2,3-dihydro-1H-benzo[d]imidazol-1-yl)-N-(1H-pyrazol-3-yl) picolinamide]"
4,< 300,"N#Cc1nccnc1-n1c(=O)n(C[C@H]2CC[C@H](NC(=O)c3cc(Cl)cnc3C(F)F)CC2)c2ccccc21 [Example 369, 5-chloro-N-((1r,4r)-4-((3-(3-cyanopyrazin-2-yl)-2-oxo-2,3-dihydro-1H-benzo[d]imidazol-1-yl)methyl)cyclohexyl)-2-(difluoromethyl)nicotinamide]"
5,< 300,"C[C@@H](O)COc1ccc(-n2c(=O)n(C[C@H]3CC[C@H](NC(=O)c4cc(Cl)cnc4C(F)(F)F)CC3)c3ccccc32)cn1 [Example 466, 5-chloro-N-((1R,4r)-4-((3-(6-((R)-2-hydroxypropoxy)pyridin-3-yl)-2-oxo-2,3-dihydro-1H-benzo[d]imidazol-1-yl)methyl)cyclohexyl)-2-(trifluoromethyl)nicotinamide]"
6,< 300,"O=C(N[C@H]1CC[C@H](Cn2c(=O)n(-c3ccc4ncccc4c3)c3cccnc32)CC1)c1cc(Cl)cnc1C(F)(F)F [Example 360, 5-chloro-N-((1r,4r)-4-((2-oxo-1-(quinolin-6-yl)-1H-imidazo [4,5-b]pyridin-3(2H)-yl)methyl)cyclohexyl)-2-(trifluoromethyl) nicotinamide]"
7,< 300,"CCOc1ccc(-n2c(=O)n(C[C@H]3CC[C@H](NC(=O)c4cc(Cl)cnc4C)CC3)c3cccnc32)cc1 [Example 402, 5-chloro-N-((1r,4r)-4-((3-(4-ethoxyphenyl)-2-oxo-2,3-dihydro-1H-imidazo[4,5-b]pyridin-1-yl)methyl)cyclo-hexyl)-2-methylnicotinamide]"
8,< 300,"CNc1cnc(-n2c(=O)n(C[C@H]3CC[C@H](NC(=O)c4cc(Cl)cnc4C(F)F)CC3)c3ccccc32)cn1 [Example 391, 5-chloro-2-(difluoromethyl)-N-((1r,4r)-4-((3-(5-(methyl-amino)pyrazin-2-yl)-2-oxo-2,3-dihydro-1H-benzo[d]imidazol-1-yl)methyl)cyclohexyl) nicotinamide]"
9,< 300,"COCCNc1ccc(-n2c(=O)n(C[C@H]3CC[C@H](NC(=O)c4cc(Cl)cnc4C(F)F)CC3)c3ccccc32)cn1 [Example 572, 5-chloro-2-(difluoromethyl)-N-((1r,4r)-4-((3-(6-((2-methoxyethyl)amino)pyridin-3-yl)-2-oxo-2,3-dihydro-1H-benzo[d]imidazol-1-yl)methyl)cyclohexyl)nicotinamide]"
10,< 300,"Cc1ncc(Cl)cc1C(=O)N[C@H]1CC[C@H](Cn2c(=O)n(-c3cnc4c(c3)CCN4)c3ccccc32)CC1 [Example 152, 5-chloro-N-((1r,4r)-4-((3-(2,3-dihydro-1H-pyrrolo[2,3-b]pyridin-5-yl)-2-oxo-2,3-dihydro-1H-benzo[d]imidazol-1-yl)methyl)cyclohexyl)-2-methylnicotinamide]"
11,< 300,"O=C(N[C@H]1CC[C@H](Cn2c(=O)n(-c3ccc(N4CCCC4=O)cn3)c3ccccc32)CC1)c1cc(Cl)cnc1C(F)F [Example 767, 5-chloro-2-(difluoromethyl)-N-((1r,4r)-4-((2-oxo-3-(5-(2-oxopyrrolidin-1-yl)pyridin-2-yl)-2,3-dihydro-1H-benzo [d]imidazol-1-yl)methyl)cyclohexyl)nicotinamide]"
12,< 300,"C[C@@H](Oc1ccc(-n2c(=O)n(C[C@H]3CC[C@H](NC(=O)c4cc(Cl)cnc4C(F)F)CC3)c3ccccc32)cn1)C(N)=O [Example 504, N-((1R,4r)-4-((3-(6-(((R)-1-amino-1-oxopropan-2-yl)oxy)pyridin-3-yl)-2-oxo-2,3-dihydro-1H-benzo[d]imidazol-1-yl)methyl)cyclohexyl)-5-chloro-2-(difluoromethyl) nicotinamide]"
13,< 300,"COc1ccc(C#N)c(-n2c(=O)n(C[C@H]3CC[C@H](NC(=O)c4cc(Cl)cnc4C(F)(F)F)CC3)c3ccccc32)c1 [Example 292, 5-chloro-N-((1r,4r)-4-((3-(2-cyano-5-methoxyphenyl)-2-oxo-2,3-dihydro-1H-benzo[d]imidazol-1-yl)methyl)cyclohexyl)-2-(trifluoromethyl)nicotinamide]"
14,< 300,"CNC(=O)c1ccc(-n2c(=O)n(C[C@H]3CC[C@H](NC(=O)c4cc(Cl)cnc4CF)CC3)c3ccccc32)cn1 [Example 582, 5-(3-(((1r,4r)-4-(5-chloro-2-(fluoromethyl)nicotina-mido)cyclohexyl)methyl)-2-oxo-2,3-dihydro-1H-benzo[d]imidazol-1-yl)-N-methylpicolinamide]"
15,< 300,"COCCOc1ccc(-n2c(=O)n(C[C@H]3CC[C@H](NC(=O)c4cc(Cl)cnc4C)CC3)c3ccccc32)cn1 [Example 417, 5-chloro-N-((1r,4r)-4-((3-(6-(2-methoxyethoxy)pyridin-3-yl)-2-oxo-2,3-dihydro-1H-benzo[d]imidazol-1-yl)methyl)cyclohexyl)-2-methylnicotinamide]"
16,< 300,"O=C(N[C@H]1CC[C@H](Cn2c(=O)n(-c3cccc4nccn34)c3ccccc32)CC1)c1cc(Cl)cnc1C(F)F [Example 420, 5-chloro-2-(difluoromethyl)-N-((1r,4r)-4-((3-(imidazo[1,2-a]pyridin-5-yl)-2-oxo-2,3-dihydro-1H-benzo[d]imidazol-1-yl)methyl)cyclohexyl)nicotinamide]"
17,< 300,"COc1ccc(Cn2c(=O)n(C[C@H]3CC[C@H](NC(=O)c4cc(Cl)cnc4C)CC3)c3cccnc32)c(OC)c1 [Example 251, 5-chloro-N-((1r,4r)-4-((3-(2,4-dimethoxybenzyl)-2-oxo-2,3-dihydro-1H-imidazo[4,5-b]pyridin-1-yl)methyl)cyclo-hexyl)-2-methylnicotinamide]"
18,< 300,"Cc1ncc(Cl)cc1C(=O)N[C@H]1CC[C@H](Cn2c(=O)n(-c3ccc4c(C(N)=O)noc4c3)c3ccccc32)CC1 [Example 243, 6-(3-(((1r,4r)-4-(5-chloro-2-methylnicotinamido)cyclohexyl)methyl)-2-oxo-2,3-dihydro-1H-benzo[d]imidazol-1-yl)benzo[d]isoxazole-3-carboxamide]"
19,< 300,"Cc1ncc(Cl)cc1C(=O)N[C@H]1CC[C@H](Cn2c(=O)n(-c3ccc(C(=O)Nc4ccncc4)nc3)c3ccccc32)CC1 [Example 181, 5-(3-(((1r,4r)-4-(5-chloro-2-methylnicotinamido)cyclo-hexyl)methyl)-2-oxo-2,3-dihydro-1H-benzo[d]imidazol-1-yl)-N-(pyridin-4-yl) picolinamide]"
20,< 300,"Cc1ncc(Cl)cc1C(=O)N[C@H]1CC[C@H](Cn2c(=O)n(-c3ccc(N4CC(N(C)C)C4)nc3)c3ccccc32)CC1 [Example 161, 5-chloro-N-((1r,4r)-4-((3-(6-(3-(dimethylamino)azetidin-1-yl)pyridin-3-yl)-2-oxo-2,3-dihydro-1H-benzo[d]imidazol-1-yl)methyl)cyclohexyl)-2-methylnicotinamide]"
21,< 300,"O=C(N[C@H]1CC[C@H](Cn2c(=O)n(-c3ccnc(-c4cnco4)c3)c3ccccc32)CC1)c1cc(Cl)cnc1C(F)F [Example 687, 5-chloro-2-(difluoromethyl)-N-((1r,4r)-4-((3-(2-(oxazol-5-yl)pyridin-4-yl)-2-oxo-2,3-dihydro-1H-benzo[d]imidazol-1-yl)methyl)cyclohexyl) nicotinamide]"
22,< 300,"Cc1ncc(Cl)cc1C(=O)N[C@H]1CC[C@H](Cn2c(=O)n(-c3ccc4nn(C5COC5)nc4c3)c3ccccc32)CC1 [Example 340, 5-chloro-2-methyl-N-((1r,4r)-4-((3-(2-(oxetan-3-yl)-2H-benzo[d][1,2,3]triazol-5-yl)-2-oxo-2,3-dihydro-1H-benzo [d]imidazol-1-yl)methyl)cyclohexyl)nicotinamide]"
23,< 300,"Cc1ncc(Cl)cc1C(=O)N[C@H]1CC[C@H](Cn2c(=O)n(-c3ccc(NC(C)C)nc3)c3ccccc32)CC1 [Example 460, 5-chloro-N-((1r,4r)-4-((3-(6-(isopropylamino)pyridin-3-yl)-2-oxo-2,3-dihydro-1H-benzo[d]imidazol-1-yl)methyl)cyclohexyl)-2-methylnicotinamide]"
24,< 300,"CNc1cc(C)c(-n2c(=O)n(C[C@H]3CC[C@H](NC(=O)c4cc(Cl)cnc4C)CC3)c3ccccc32)cn1 [Example 435, 5-chloro-2-methyl-N-((1r,4r)-4-((3-(4-methyl-6-(methylamino)pyridin-3-yl)-2-oxo-2,3-dihydro-1H-benzo[d]imidazol-1-yl)methyl)cyclohexyl)nicotinamide]"
